According to publication PMC6779124 (ACS infectious diseases, 2018):

Target: Stk1 kinase domain (Staphylococcus aureus, UniProt A0A0H2XGG5)
Test: […]-ATP autoradiography, autophosphorylation and MBP phosphorylation
Assay type: biochemical
Settings: […] kinase domain, […] MBP, […] ATP, […] MnCl2, pH […] °C

SMILES	32P-ATP autoradiography, autophosphorylation and MBP phosphorylation	32P-ATP autoradiography, autophosphorylation and MBP phosphorylation (inhibitor […])
CN1CCN(c2ccc(Nc3nccc(-c4cnn5ncccc45)n3)cc2)CC1 [CAF045, N-(4-(4-Methylpiperazin-1-yl)phenyl)-4-(pyrazolo-[1,5-b]pyridazin-3-yl)pyrimidin-2-amine]	CAF045 and CAF077, displayed an intermediate phenotype with partial Stk1 inhibition	
CN1CCN(c2ccc(Nc3nccc(-c4cnn5ncccc45)n3)cc2C#N)CC1 [CAF078, 2-(4-Methylpiperazin-1-yl)-5-((4-(pyrazolo-[1,5-b]-pyridazin-3-yl)pyrimidin-2-yl)amino)benzonitrile]	CAF052 and CAF078 robustly inhibited Stk1 kinase activity like the GW779439X control	
CN1CCN(c2ccc(Nc3nccc(-c4cnn5ncccc45)n3)cc2F)CC1 [CAF052, N-(3-Fluoro-4-(4-methylpiperazin-1-yl)phenyl)-4-(pyrazolo[1,5-b]pyridazin-3-yl)pyrimidin-2-amine]		CAF052 and CAF078 robustly inhibited Stk1 kinase activity like the GW779439X control
CN1CCN(c2cccc(Nc3nccc(-c4cnn5ncccc45)n3)c2)CC1 [CAF077, N-(3-(4-Methylpiperazin-1-yl)phenyl)-4-(pyrazolo-[1,5-b]pyridazin-3-yl)pyrimidin-2-amine]	CAF045 and CAF077, displayed an intermediate phenotype with partial Stk1 inhibition	
